Reference: patent US10221139B2, “Inhibitors of histone demethylases” (Gilead Sciences, Inc., priority 2012, dated 2019)

Legend:
Assay type in all cases: cell-based
Conditions in all cases: 20 hours
GASC1 (KDM4C) = target: T1, GASC1 (KDM4C) (Homo sapiens, UniProt Q9H3R0); test: Immunofluorescence assay in U2OS cells transfected with pCMVHA JMJD2C (H3K9me3 mark)
T1 construct: Full length; host or cells: U2OS
T1 sequence (Q9H3R0 1-1056): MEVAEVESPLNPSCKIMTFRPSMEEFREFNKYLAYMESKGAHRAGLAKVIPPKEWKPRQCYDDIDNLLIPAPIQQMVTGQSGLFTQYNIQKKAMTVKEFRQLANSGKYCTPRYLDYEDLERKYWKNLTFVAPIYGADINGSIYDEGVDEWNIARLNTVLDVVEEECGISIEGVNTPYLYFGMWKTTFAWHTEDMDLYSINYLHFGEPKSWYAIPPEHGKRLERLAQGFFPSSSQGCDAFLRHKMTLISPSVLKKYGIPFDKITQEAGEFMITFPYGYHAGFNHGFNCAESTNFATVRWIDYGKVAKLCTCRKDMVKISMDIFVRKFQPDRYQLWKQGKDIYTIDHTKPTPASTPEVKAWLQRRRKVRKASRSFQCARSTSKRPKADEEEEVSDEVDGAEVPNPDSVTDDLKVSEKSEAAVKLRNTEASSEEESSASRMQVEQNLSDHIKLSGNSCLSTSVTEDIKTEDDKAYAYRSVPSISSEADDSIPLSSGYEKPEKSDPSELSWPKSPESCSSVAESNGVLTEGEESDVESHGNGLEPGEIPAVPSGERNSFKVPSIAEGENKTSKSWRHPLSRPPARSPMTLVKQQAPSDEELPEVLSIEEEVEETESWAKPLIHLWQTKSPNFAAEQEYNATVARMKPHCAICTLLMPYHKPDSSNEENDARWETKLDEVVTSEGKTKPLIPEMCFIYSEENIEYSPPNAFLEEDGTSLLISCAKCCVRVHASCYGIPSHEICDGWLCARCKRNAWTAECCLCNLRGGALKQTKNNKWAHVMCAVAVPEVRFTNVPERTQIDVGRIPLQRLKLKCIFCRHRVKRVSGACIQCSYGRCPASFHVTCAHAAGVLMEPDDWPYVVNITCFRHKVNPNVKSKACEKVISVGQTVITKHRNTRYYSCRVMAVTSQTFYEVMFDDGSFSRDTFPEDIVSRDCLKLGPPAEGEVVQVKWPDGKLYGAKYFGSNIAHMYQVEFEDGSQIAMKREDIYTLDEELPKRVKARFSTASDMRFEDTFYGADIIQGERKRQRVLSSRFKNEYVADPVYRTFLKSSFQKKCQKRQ
Protocol: (§1) U2OS cells were seeded 24 hours before transfection. Transfection was performed with Fugene HD transfection reagent as recommended by the manufacturer. 6 hours after transfection, the cells were harvested and seeded into multi well plates into media containing compound. The media used was DMEM containing 5% FBS and pen/strep. 20 hours after incubation of cells with compounds, the cells were washed once in PBS, harvested by fixation with formaldehyde 4% aqueous solution, and washed 2 times in PBS. Subsequently, the cells were permeabilized in PBS with 0.2% Triton X-100 for 10 min at room temperature. Blocking was performed in PBS with 0.2% Triton X-100 and 5% FBS for 45 min at room temperature. The cells were incubated with primary antibodies diluted 1 μg/ml in blocking solution over night at 4° C. The primary antibodies used in the assays were HA.11 (Covance, MMS-101P) and the antibody detecting the mark specified in the Table 6 below. After incubation with primary antibodies, the cells were washed 3 times with PBS, incubated with secondary antibodies diluted 1:1000 (Alexa fluor 594 goat anti rabbit IgG, Invitrogen, A11012; Alexa flour 488 donkey anti mouse IgG, Invitrogen, A21202) and Hoechst, 20 μg/ml (Sigma, 33342) in blocking solution, and washed again 3 times with PBS. Finally, PBS was added and high throughput imaging and analysis were performed by an IN Cell Analyzer 1000 (GE Healthcare). The robot software analyzed individual cells and divided these into HA^+ (transfected cells) and HA^− (non-transfected cells). The IC50 values in Table 7 below were based on an average measure of the staining of the mark specified in the Table 6 below in the transfected cells.

JMJD2A (KDM4A) = target: T2, JMJD2A (KDM4A) (Homo sapiens, UniProt O75164); test: Immunofluorescence assay in U2OS cells transfected with pCMVHA JMJD2A (H3K9me3 mark)
T2 construct: Full length; host or cells: U2OS
T2 sequence (O75164 1-1064): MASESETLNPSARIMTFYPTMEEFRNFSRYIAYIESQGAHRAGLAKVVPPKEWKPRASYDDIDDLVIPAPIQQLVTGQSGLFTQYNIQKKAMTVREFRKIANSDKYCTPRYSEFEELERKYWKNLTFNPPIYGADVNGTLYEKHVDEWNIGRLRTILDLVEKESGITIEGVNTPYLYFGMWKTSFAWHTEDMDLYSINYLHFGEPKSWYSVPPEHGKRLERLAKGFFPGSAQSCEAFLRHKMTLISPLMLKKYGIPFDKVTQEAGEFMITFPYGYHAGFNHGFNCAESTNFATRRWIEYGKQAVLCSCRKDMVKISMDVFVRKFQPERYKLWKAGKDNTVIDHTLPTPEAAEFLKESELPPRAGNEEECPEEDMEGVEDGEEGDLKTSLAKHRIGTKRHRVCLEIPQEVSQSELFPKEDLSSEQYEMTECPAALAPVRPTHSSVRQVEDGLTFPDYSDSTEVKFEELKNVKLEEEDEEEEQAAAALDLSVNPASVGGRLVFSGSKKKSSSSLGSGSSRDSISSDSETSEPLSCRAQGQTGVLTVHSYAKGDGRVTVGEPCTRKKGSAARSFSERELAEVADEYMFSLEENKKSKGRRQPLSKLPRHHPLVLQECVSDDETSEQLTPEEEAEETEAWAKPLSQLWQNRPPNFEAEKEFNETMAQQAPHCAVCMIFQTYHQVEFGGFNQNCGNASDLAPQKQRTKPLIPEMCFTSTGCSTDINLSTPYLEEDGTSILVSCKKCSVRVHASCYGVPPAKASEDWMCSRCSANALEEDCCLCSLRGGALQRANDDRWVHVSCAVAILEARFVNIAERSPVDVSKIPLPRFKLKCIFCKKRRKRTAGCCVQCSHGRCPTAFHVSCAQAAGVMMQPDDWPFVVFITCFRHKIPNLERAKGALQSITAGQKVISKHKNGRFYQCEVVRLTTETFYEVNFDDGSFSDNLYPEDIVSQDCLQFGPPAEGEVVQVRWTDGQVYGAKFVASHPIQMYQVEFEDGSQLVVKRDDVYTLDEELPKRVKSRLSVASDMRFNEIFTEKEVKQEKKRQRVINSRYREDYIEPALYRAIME
Protocol: as §1

PLU1 (KDM5B) = target: T3, PLU1 (KDM5B) (Homo sapiens, UniProt Q9UGL1); test: Immunofluorescence assay in U2OS cells transfected with pCMVHA PLU1 (H3K4me2 mark)
T3 construct: (1-752); host or cells: U2OS
T3 sequence (Q9UGL1 1-752): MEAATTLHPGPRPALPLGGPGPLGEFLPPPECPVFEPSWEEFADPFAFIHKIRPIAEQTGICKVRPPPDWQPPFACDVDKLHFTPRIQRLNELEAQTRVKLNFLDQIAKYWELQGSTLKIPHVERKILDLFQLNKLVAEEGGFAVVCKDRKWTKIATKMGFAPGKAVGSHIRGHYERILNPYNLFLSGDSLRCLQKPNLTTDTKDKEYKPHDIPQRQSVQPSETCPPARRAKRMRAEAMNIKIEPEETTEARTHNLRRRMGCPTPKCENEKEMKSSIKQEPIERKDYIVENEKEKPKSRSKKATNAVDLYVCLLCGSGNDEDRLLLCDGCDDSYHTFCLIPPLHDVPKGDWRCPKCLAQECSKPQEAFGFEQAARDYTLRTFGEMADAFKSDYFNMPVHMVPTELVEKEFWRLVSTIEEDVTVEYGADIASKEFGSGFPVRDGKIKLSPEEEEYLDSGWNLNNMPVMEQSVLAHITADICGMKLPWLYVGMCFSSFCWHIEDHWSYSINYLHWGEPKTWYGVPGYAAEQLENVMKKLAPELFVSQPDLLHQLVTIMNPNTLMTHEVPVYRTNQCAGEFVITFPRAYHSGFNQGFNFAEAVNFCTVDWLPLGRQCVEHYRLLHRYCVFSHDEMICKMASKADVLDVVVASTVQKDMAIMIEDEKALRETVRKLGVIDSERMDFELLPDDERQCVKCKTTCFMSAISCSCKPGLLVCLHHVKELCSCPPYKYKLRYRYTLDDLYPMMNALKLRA
Outline: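 U2OS cells transiently expressing HA-tagged demethylase, exposed to compound 6 h post-transfection for 20 h in DMEM/5% FBS. Cells fixed, then immunostained for HA and the histone methyl mark and imaged by high-content analysis. IC50 from mean mark staining in HA-positive transfected cells.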

CCN(CCN(C)C)C(=O)CNCc1cc(C(=O)O)ccn1 [drawing 328, 2-{[({[2-(dimethylamino)ethyl](ethyl)carbamoyl}methyl)amino]methyl}pyridine-4-carboxylic acid]
IC50 (GASC1 (KDM4C)): > 50 µM | IC50 (JMJD2A (KDM4A)): 1 to 50 µM | IC50 (PLU1 (KDM5B)): 1 to 50 µM
